Data from patent US9464064B2, “HCV helicase inhibitors and methods of use thereof” (University of Kansas, priority 2011, dated 2016).
Where “and” joins values, the source holds several entries; their conditions need not be identical. Identical values can stand only once. Like-named read-outs stand apart in the source and are kept apart here.

Columns and labels:
[1] = system: HCV RLuc subgenomic replicon (genotype 1b) in Huh-7.5 cells; assay: HCV subgenomic replicon assay (Renilla luciferase); format: cell-based, hepatitis C virus; conditions: Hepatitis C virus
From the text: An HCV Renilla luciferase reporter construct (HCV RLuc; Huang, et al. (2006) Hepatology 43:81-90) was used to measure the effect of each compound on cellular HCV RNA levels. In HCV RLuc, the HCV internal ribosome entry site (IRES) drives the translation of the neomycin and Renilla luciferase genes while the HCV nonstructural proteins (NS3 to NS5B) are translated from the Encephalomyocarditis virus IRES (Huang, et al. (2006) supra). The plasmid DNA was cleaved with ScaI, purified by phenol/chloroform extraction followed by ethanol precipitation, and used as template for RNA transcription using […] T7 RNA transcription kit (Ambion, Austin, Tex.). The RNA transcripts were treated with 2 U DNase I (Ambion) at 37° C. for 30 minutes, purified by acid phenol/chloroform extraction, followed by isopropanol precipitation, and suspended in diethylpyrocarbonate-treated water. RNA concentration was determined by spectrophotometry by measuring the A260. RNA integrity and size was checked on 1% agarose gel. Transcribed RNA was stored in aliquots at −80° C. until needed.
Huh-7.5 cells were transfected with HCV RNA by electroporation. Briefly, subconfluent Huh7.5 cells were trypsinized, suspended in complete growth medium, and centrifuged at 1,000×g for 5 minutes at 4° C. The cell pellets were then washed twice with ice-cold phosphate-buffered saline (PBS) and suspended at 1.75×10^7 cells/mL in ice-cold PBS. Replicon RNA (5 μg) was mixed with 0.4 mL of cell suspension and transferred to 2 mm gap width electroporation cuvette (EPPENDORF AG, Germany) and pulsed 5 times for 99 μsec at 820 V over 1.1 sec intervals using the ECM 830 electroporator instrument (BTX Harvard Apparatus, Holliston, Mass.). After a 5 minute recovery period at room temperature, cells were transferred to 10 ml complete growth medium, and seeded into 10 cm diameter cell culture dishes. Twenty-four hours after transfection, the medium was replaced with fresh complete DMEM supplemented with 1 mg/ml geneticin (Invitrogen) and the medium was replaced every three to four days with fresh medium containing 1 mg/mL geneticin. Geneticin-resistant colonies were selected for a period of two weeks and expanded in the presence of 250 μg/mL geneticin.
HCV RLuc replicon cells were seeded at a density of 10×10^3 cells per well in 96-well plates and incubated for 4-5 hours to allow the cells to attach to the plate. The compounds dissolved in dimethyl sulfoxide (DMSO) were added at a final concentration of 10 μM (DMSO solvent final concentration was 0.5%) and the cells were incubated for 72 hours at 37° C. under 5% CO2 atmosphere. The effects of compounds on HCV replication were then assessed by measuring the Renilla luciferase activity in compound-treated versus DMSO-treated cells. At the end of the incubation period, the medium was aspirated and the cells were washed with 1×PBS. The Renilla luciferase reporter gene assay was performed using the Renilla luciferase assay kit (PROMEGA, Madison, Wis.) according to the manufacturer's instructions. Briefly, the cells were lysed by addition of 50 μL of 1× Renilla luciferase lysis buffer followed by two cycles of freeze/thaw. The luciferase activity content of the lysate was measured with a FLUOSTAR Omega microplate reader instrument (BMG Labtech, Germany) after injecting 50 μL of luciferase substrate and reading for 5 seconds.
To determine if the above identified compounds might be useful as HCV antiviral agents, they were added to cells harboring HCV subgenomic RNA replicon. The HCV replicon chosen was derived from the same HCV strain (genotype 1b) as the NS3 protein used for screening and enzyme assays. […] 75:4614-4624; Blight, et al. (2002) J. Virol. 76:13001-13014). […]

Huh-7.5 cells = assay: Cell viability assay ([…]-GLO); format: cell-based, human; conditions: for Cell viability (% viable): 10 μM compound, triplicate, average ± SD
How it was run: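 Huh-7.5 cells exposed to compound for 72 hours, washed, then lysed in a 1:1 mix of growth medium and […]-GLO reagent. After 30 minutes at 23° C., luminescence was read for 1 second as a measure of viability.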

[2] = Huh7.5, 10 μM compound, triplicate, average ± SD, read-out: HCV replication (% Inh.)
[3] = Huh7.5, 10 μM, read-out: Replicon (% Inhibition @ 10 μM)

Compound | inhibition at 10 µM [1, 2] [%] | inhibition at 10 µM [1, 3] [%] | Cell Viability (% @ 10 μM) (Huh-7.5 cells) | Cell viability (% viable) (Huh-7.5 cells) [%]
Cc1ccc2nc(-c3ccc4nc(-c5ccc(NC(=O)c6ccc7ccccc7c6)cc5)sc4c3)sc2c1S(=O)(=O)O [Compound 33, 2′-(4-(2-naphthamido)phenyl)-6-methyl-[2,6′-bibenzo[d]thiazole]-7-sulfonic acid] | 61 ± 10 | 21 ± 33 | 99 ± 11% | 
Cc1ccc2nc(-c3ccc4nc(-c5ccc(N(C)C(=O)c6ccc7ccccc7c6)cc5)sc4c3)sc2c1S(=O)(=O)O [Compound 34, 6-methyl-2′-(4-(N-methyl-2-naphthamido)phenyl)-[2,6′-bibenzo[d]thiazole]-7-sulfonic acid] | -30 ± 30 | 24 ± 32 | 101 ± 9% | 
Cc1ccc2nc(-c3ccc4nc(-c5ccc(NC(=O)c6ccc7nc(-c8ccc(N)cc8)sc7c6)cc5)sc4c3)sc2c1S(=O)(=O)O [Compound 35, 2′-(4-(2-(4-aminophenyl)benzo[d]thiazole-6-carboxamido)phenyl)-6-methyl-[2,6′-bibenzo[d]thiazole]-7-sulfonic acid] | 37 ± 4 | 37 ± 4 | 85 ± 2% | 85 ± 2
Cc1ccc2nc(-c3ccc4nc(-c5ccc(NC(=O)c6ccc7nc(-c8ccc(NC(=O)OCC9c%10ccccc%10-c%10ccccc%109)cc8)sc7c6)cc5)sc4c3)sc2c1S(=O)(=O)O.N [Compound 36] | 42 ± 5 | 44 ± 9 | 95 ± 3% and 90 ± 4% | 90 ± 4
Cc1ccc2nc(-c3ccc(NC(=O)c4ccc(NC(=O)c5ccccc5)cc4)cc3)sc2c1S(=O)(=O)O.N [Compound 40] |  | -19 ± 42 | 115 ± 3% | 
Cc1ccc2nc(-c3ccc4nc(-c5ccc(NC(=O)c6ccc(CNC(=O)OCC7c8ccccc8-c8ccccc87)cc6)cc5)sc4c3)sc2c1S(=O)(=O)O.N [Compound 41] |  | 48 ± 18 | 102 ± 6% | 
Cc1ccc2nc(-c3ccc(NC(=O)c4ccc(NC(=O)OCC5c6ccccc6-c6ccccc65)cc4)cc3)sc2c1S(=O)(=O)O.N [Compound 42] |  | 31 ± 10 | 108 ± 2% | 
Cc1ccc2nc(-c3ccc(NC(=O)c4ccc(NC(=S)Nc5ccccc5)cc4)cc3)sc2c1S(=O)(=O)O.N [Compound 43] |  | -13 ± 2 | 106 ± 3% | 
Cc1ccc2nc(-c3ccc(NC(=O)c4ccc(NC(=O)c5ccc(C(F)(F)F)cc5)cc4)cc3)sc2c1S(=O)(=O)O.N [Compound 44] |  | 4 ± 8 | 97 ± 7% | 
Cc1ccc2nc(-c3ccc(NC(=O)c4ccc(NC(=O)Nc5ccccc5)cc4)cc3)sc2c1S(=O)(=O)O.N [Compound 45] |  | -64 ± 90 | 113 ± 4% | 
Cc1ccc2nc(-c3ccc(NC(=O)c4ccc(NC(=O)c5ccc(N)cc5)cc4)cc3)sc2c1S(=O)(=O)O.N [Compound 46] |  | -42 ± 26 | 112 ± 5% | 
Cc1ccc2nc(-c3ccc4nc(-c5ccc(NC(=O)Nc6ccc(C(F)(F)F)cc6)cc5)sc4c3)sc2c1S(=O)(=O)O.N [Compound 47] |  | 7 ± 39 | 99 ± 7% | 
Cc1ccc2nc(-c3ccc4nc(-c5ccc(NC(=O)Nc6ccc(F)cc6)cc5)sc4c3)sc2c1S(=O)(=O)O.N [Compound 48] |  | 17 ± 25 | 93 ± 2% | 
Cc1ccc2nc(-c3ccc4nc(-c5ccc(NC(=O)c6cccc7ccccc67)cc5)sc4c3)sc2c1S(=O)(=O)O.N [Compound 49] |  | -9 ± 8 | 103 ± 5% | 
Cc1ccc2nc(-c3ccc4nc(-c5ccc(NC(=S)Nc6ccccc6)cc5)sc4c3)sc2c1S(=O)(=O)O.N [Compound 50] |  | 9 ± 9 | 98 ± 10% | 
Cc1ccc2nc(-c3ccc(NC(=O)c4ccc(NC(=O)c5ccc(NC(=O)OCC6c7ccccc7-c7ccccc76)cc5)cc4)cc3)sc2c1S(=O)(=O)O.N [Compound 51] |  | -14 ± 26 | 113 ± 5% | 
Cc1ccc2nc(-c3ccc4nc(-c5ccc(NC(=O)Nc6ccccc6)cc5)sc4c3)sc2c1S(=O)(=O)O.N [Compound 52] |  | -18 ± 56 | 108 ± 4% | 
Cc1ccc2nc(-c3ccc4nc(-c5ccc(NCc6ccccc6)cc5)sc4c3)sc2c1S(=O)(=O)O [Compound 53] |  | -64 ± 25 | 109 ± 8% | 
Cc1ccc2nc(-c3ccc4nc(-c5ccc(NC(=O)Nc6ccc(Cl)cc6)cc5)sc4c3)sc2c1S(=O)(=O)O [Compound 54] |  | 35 ± 28 | 98 ± 1% | 
COc1ccc(NC(=O)Nc2ccc(-c3nc4ccc(-c5nc6ccc(C)c(S(=O)(=O)O)c6s5)cc4s3)cc2)cc1 [Compound 55] |  | 21 ± 10 | 99 ± 9% | 
